# Data as given in PMC9551036, “A selective and orally bioavailable VHL-recruiting PROTAC achieves SMARCA2 degradation in vivo” (Nature Communications, 2022).
# Several values for one entry are separate records, joined by “and”; a condition that tells them apart may be missing. Equal entries are not always repeated. Where two headings read alike, the source gives them in different places.
# What was measured:
# SMARCA2 = SMARCA2 (Homo sapiens, UniProt P51531); experiment: SMARCA2 capillary electrophoresis protein assay in other cell lines (A549, NCI-H1568, HCT116, LU99, HCC-364, HCT-15, HCC4006, SK-N-AS); assay type: cell-based; set-up: endogenous in cells; host or cells: RKO, NCI-H1568, A549, HCT116, LU99, HCC-364, HCT-15, HCC4006, SK-N-AS
# Description: 130,000–200,000 cells were seeded in 24-well plates and incubated until settled down or overnight. Compounds were dissolved in DMSO and added to cells in indicated concentrations using a digital dispenser following an optional media change. Cells were incubated for 4 or 18 h as indicated. For SMARCA2/4 half-life determination, 150,000 or 200,000 cells were seeded in 24-well plates. The next day, 50 µg/ml cycloheximide (Sigma) was added and cells were incubated for 1–24 h. For SMARCA2/4 re-synthesis measurements, 200,000 cells were seeded in 24-well plates. The next day, 100 nM compound 6 was added for 4 h to degrade SMARCA2/4, and a sample was taken as baseline for normalisation. To allow re-synthesis, a VHL binder (compound 32, 25 or 50 µM) was then added for 3 or 24 h. Medium was removed, cells were washed with PBS and lysed with 80 µl Lysis Buffer (MSD Tris Lysis Buffer (#R60TX-2) + Halt Inhibitor Cocktail (100x) + Benzonase 0.5 µL/ml). Samples were frozen at −80 °C and thawed at room temperature before use. Samples were transferred to a V-bottom plate and insoluble debris was pelleted by centrifugation for 5 min at maximum speed. The supernatant was transferred to a fresh plate. Master Mix and Ladder were prepared according to manufacturer’s instructions for 12–230 kDa Wes Separation Module, 8 × 25 capillary cartridges, Protein Simple #SM-W004 with Anti-Rabbit Detection Module for Wes, Peggy Sue or Sally Sue, Protein Simple #DM-001. 4.8 µl lysate were mixed with 1.2 µl Master Mix to achieve a protein concentration of ~0.5 µg/µl. Antibodies were diluted in Antibody Diluent II (SMARCA2 Sigma #HPA029981 RRID:AB_10602406 1:25–100, SMARCA4 Cell Signalling #49360 clone D1Q7F RRID:AB_2728743 1:15–120 or Abcam #ab110641 clone EPNCIR111A RRID:AB_10861578 1:60, GAPDH Abcam #ab9485 RRID:AB_307275 1:250). Wes plates were prepared and run according to manufacturer’s instructions. Proteins were quantified with accompanying Compass Software. SMARCA2/4 protein levels were normalised to GAPDH. […] Where applicable, curves were fitted using a 4-parametric logistic model.
# Plasma protein binding = assay type: in vitro ADME
# Description: Binding of compound to plasma proteins was determined by equilibrium dialysis of 3 µmol/L compound in plasma (or plasma dilutions in PBS) against PBS through an 8 kDa molecular-weight cut-off cellulose membrane (RED device, Thermo Fisher) at 37 °C for 5 h. After incubation, aliquots from donor and acceptor compartments were precipitated and the concentrations in the supernatants were determined by quantitative LC-MS/MS. Calibration and quality control samples were prepared using blank plasma and internal standard. The fraction unbound was calculated as ratio of the compound concentration in the acceptor compartment to the concentration in the donor compartment.
# P-gp = experiment: Bidirectional permeability measurement in Caco-2 cells; assay type: in vitro ADME; settings: human, Caco-2, pH 7.4, with zosuquidar 5 µM
# How it was run: (§1)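 Compound quantified by LC-MS/MS in samples taken over up to 2 h across 14–21-day Caco-2 monolayers, after 24 h preincubation with 1 µM compound. Runs done without and with 5 µM zosuquidar to probe P-gp. Efflux ratio is the quotient of duplicate-mean Papp,BA over Papp,AB.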
# [1] = as above; assay type: in vitro ADME; settings: human
# How it was run: as §1
# [2] = SK-N-AS_SM2, four-parameter fit
# Chain of SMARCA2 (P51531 whole entry): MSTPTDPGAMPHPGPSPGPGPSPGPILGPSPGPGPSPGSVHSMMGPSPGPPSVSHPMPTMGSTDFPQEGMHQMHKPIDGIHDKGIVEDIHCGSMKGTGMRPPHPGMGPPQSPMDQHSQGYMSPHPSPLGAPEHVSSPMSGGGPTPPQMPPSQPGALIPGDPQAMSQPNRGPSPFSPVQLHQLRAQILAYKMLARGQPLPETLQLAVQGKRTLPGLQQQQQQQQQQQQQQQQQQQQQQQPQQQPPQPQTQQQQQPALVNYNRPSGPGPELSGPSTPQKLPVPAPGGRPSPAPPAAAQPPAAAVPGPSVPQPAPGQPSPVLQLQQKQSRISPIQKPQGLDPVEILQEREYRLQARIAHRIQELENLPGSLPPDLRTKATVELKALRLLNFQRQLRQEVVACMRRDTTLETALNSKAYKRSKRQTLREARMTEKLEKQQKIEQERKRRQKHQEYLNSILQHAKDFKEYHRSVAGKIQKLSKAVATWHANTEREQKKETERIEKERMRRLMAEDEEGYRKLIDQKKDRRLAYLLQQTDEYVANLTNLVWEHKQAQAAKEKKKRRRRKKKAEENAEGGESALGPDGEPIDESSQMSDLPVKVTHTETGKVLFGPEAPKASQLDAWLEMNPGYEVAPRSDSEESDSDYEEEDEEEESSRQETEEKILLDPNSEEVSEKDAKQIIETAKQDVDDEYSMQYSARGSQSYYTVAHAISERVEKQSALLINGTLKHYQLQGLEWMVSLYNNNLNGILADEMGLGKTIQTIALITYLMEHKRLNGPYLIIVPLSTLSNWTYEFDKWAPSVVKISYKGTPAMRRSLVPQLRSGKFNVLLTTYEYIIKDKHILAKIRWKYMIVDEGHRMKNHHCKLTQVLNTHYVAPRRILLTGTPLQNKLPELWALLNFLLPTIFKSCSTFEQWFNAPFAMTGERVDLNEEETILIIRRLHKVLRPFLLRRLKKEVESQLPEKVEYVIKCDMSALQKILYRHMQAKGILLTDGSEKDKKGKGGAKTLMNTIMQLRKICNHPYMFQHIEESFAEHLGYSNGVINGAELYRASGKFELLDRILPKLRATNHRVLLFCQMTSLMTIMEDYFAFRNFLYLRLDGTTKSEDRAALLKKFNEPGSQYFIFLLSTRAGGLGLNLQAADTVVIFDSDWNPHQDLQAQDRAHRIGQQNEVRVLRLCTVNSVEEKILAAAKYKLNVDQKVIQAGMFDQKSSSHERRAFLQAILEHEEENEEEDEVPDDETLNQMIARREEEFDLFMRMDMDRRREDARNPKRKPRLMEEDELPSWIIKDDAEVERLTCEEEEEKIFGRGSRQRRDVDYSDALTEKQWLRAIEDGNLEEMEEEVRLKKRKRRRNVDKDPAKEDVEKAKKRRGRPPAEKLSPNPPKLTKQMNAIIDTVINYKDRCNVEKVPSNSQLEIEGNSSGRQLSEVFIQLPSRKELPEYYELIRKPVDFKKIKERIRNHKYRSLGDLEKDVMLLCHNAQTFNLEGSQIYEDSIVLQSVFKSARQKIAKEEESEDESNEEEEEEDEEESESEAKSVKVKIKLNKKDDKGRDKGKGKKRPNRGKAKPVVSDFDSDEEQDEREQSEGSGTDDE
smiles,measurement,setting,value
Cc1ncsc1-c1ccc(C(CCC(C)CCN2CCC(c3ccc4c(c3)n(C3CCCC3)c3nc(=O)c5c(Br)cccc5n43)CC2)NC(=O)C2CC(O)CN2C(=O)C(NC(=O)C2(F)CC2)C(C)(C)C)cc1 (stereo not shown) [ACBI2],Dmax,"SMARCA2; NCI-H1568 (4 h), mean ± SD",86 ± 6%
same,DC50,"SMARCA2; NCI-H1568 (4 h), mean ± SD, read-out: SMARCA2 DC50",13 ± 14 nM
same,"Bottom (% protein remaining, four-parameter fit)","SMARCA2; NCI-H1568, 4h",6.286%
same,HillSlope (protein remaining),"SMARCA2; NCI-H1568, 4h",-1.738
same,LogEC50 (protein remaining),"SMARCA2; NCI-H1568, 4h",-8.191 log10(mol/l)
same,"Top (% protein remaining, four-parameter fit)","SMARCA2; NCI-H1568, 4h",87.56%
same,% protein remaining,"SMARCA2; NCI-H1568, 4h, conc 1.00001e-10 mol/l",96.6234% and 94.5884%
same,% protein remaining,"SMARCA2; NCI-H1568, 4h, conc 1.52416e-10 mol/l",71.8933%
same,% protein remaining,"SMARCA2; NCI-H1568, 4h, conc 3.1623e-10 mol/l",72.7669% and 75.3978%
same,% protein remaining,"SMARCA2; NCI-H1568, 4h, conc 4.57247e-10 mol/l",96.5512%
same,% protein remaining,"SMARCA2; NCI-H1568, 4h, conc 1.00001e-9 mol/l",90.5385% and 93.373%
same,% protein remaining,"SMARCA2; NCI-H1568, 4h, conc 1.37174e-9 mol/l",95.3256%
same,% protein remaining,"SMARCA2; NCI-H1568, 4h, conc 3.1623e-9 mol/l",36.986%
same,% protein remaining,"SMARCA2; NCI-H1568, 4h, conc 4.11523e-9 mol/l",94.3111%
same,% protein remaining,"SMARCA2; NCI-H1568, 4h, conc 1.00001e-8 mol/l",19.3906% and 27.9502%
same,% protein remaining,"SMARCA2; NCI-H1568, 4h, conc 1.23457e-8 mol/l",37.9279%
same,% protein remaining,"SMARCA2; NCI-H1568, 4h, conc 3.1623e-8 mol/l",8.319% and 13.4554%
same,% protein remaining,"SMARCA2; NCI-H1568, 4h, conc 3.7037e-8 mol/l",11.4262%
same,% protein remaining,"SMARCA2; NCI-H1568, 4h, conc 1.11111e-7 mol/l",8.194%
same,% protein remaining,"SMARCA2; NCI-H1568, 4h, conc 3.1623e-7 mol/l",2.032% and 3.543%
same,% protein remaining,"SMARCA2; NCI-H1568, 4h, conc 3.33333e-7 mol/l",6.383%
same,% protein remaining,"SMARCA2; NCI-H1568, 4h, conc 1e-6 mol/l",9.793%
same,% protein remaining,"SMARCA2; NCI-H1568, 4h, conc 1.00001e-6 mol/l",2.382% and 3.308%
same,% protein remaining,"SMARCA2; NCI-H1568, 4h, conc 3.1623e-6 mol/l",2.029% and 3.947%
same,DC50,"SMARCA2; NCI-H1568, 4h, individual replicates, read-out: NCI-H1568 (4h) SMARCA2 DC50",4.72 nM and 32.5 nM and 13 nM
same,DC50,"SMARCA2; NCI-H1568, 4h, read-out: EC50 (protein remaining)",6.44 nM
same,"Bottom (% protein remaining, four-parameter fit)","SMARCA2; NCI-H1568, 8h",6.315%
same,HillSlope (protein remaining),"SMARCA2; NCI-H1568, 8h",-1.161
same,LogEC50 (protein remaining),"SMARCA2; NCI-H1568, 8h",-8.44 log10(mol/l)
same,"Top (% protein remaining, four-parameter fit)","SMARCA2; NCI-H1568, 8h",119.8%
same,% protein remaining,"SMARCA2; NCI-H1568, 8h, conc 4.57247e-10 mol/l",112.24%
same,% protein remaining,"SMARCA2; NCI-H1568, 8h, conc 1.37174e-9 mol/l",87.7845%
same,% protein remaining,"SMARCA2; NCI-H1568, 8h, conc 4.11523e-9 mol/l",63.6536%
same,% protein remaining,"SMARCA2; NCI-H1568, 8h, conc 1.23457e-8 mol/l",24.8248%
same,% protein remaining,"SMARCA2; NCI-H1568, 8h, conc 3.7037e-8 mol/l",13.998%
same,% protein remaining,"SMARCA2; NCI-H1568, 8h, conc 1.11111e-7 mol/l",8.2%
same,% protein remaining,"SMARCA2; NCI-H1568, 8h, conc 3.33333e-7 mol/l",6.313%
same,% protein remaining,"SMARCA2; NCI-H1568, 8h, conc 1e-6 mol/l",7.6382%
same,% protein remaining,"SMARCA2; NCI-H1568, 8h, conc 3e-6 mol/l",6.726%
same,DC50,"SMARCA2; NCI-H1568, 8h, read-out: EC50 (protein remaining)",3.63 nM
same,"Bottom (% protein remaining, four-parameter fit)","SMARCA2; NCI-H1568, 18h",2.272%
same,HillSlope (protein remaining),"SMARCA2; NCI-H1568, 18h",-0.7655
same,LogEC50 (protein remaining),"SMARCA2; NCI-H1568, 18h",-9.556 log10(mol/l)
same,"Top (% protein remaining, four-parameter fit)","SMARCA2; NCI-H1568, 18h",215.6%
same,% protein remaining,"SMARCA2; NCI-H1568, 18h, conc 1.52416e-10 mol/l",134.073%
same,% protein remaining,"SMARCA2; NCI-H1568, 18h, conc 4.57247e-10 mol/l",84.9656%
same,% protein remaining,"SMARCA2; NCI-H1568, 18h, conc 1.37174e-9 mol/l",57.0296%
same,% protein remaining,"SMARCA2; NCI-H1568, 18h, conc 4.11523e-9 mol/l",23.442%
same,% protein remaining,"SMARCA2; NCI-H1568, 18h, conc 1.23457e-8 mol/l",12.5025%
same,% protein remaining,"SMARCA2; NCI-H1568, 18h, conc 3.7037e-8 mol/l",5.834%
same,% protein remaining,"SMARCA2; NCI-H1568, 18h, conc 1.11111e-7 mol/l",3.6967%
same,% protein remaining,"SMARCA2; NCI-H1568, 18h, conc 3.33333e-7 mol/l",2.8858%
same,% protein remaining,"SMARCA2; NCI-H1568, 18h, conc 1e-6 mol/l",3.302%
same,% protein remaining,"SMARCA2; NCI-H1568, 18h, conc 3e-6 mol/l",4.787%
same,DC50,"SMARCA2; NCI-H1568, 18h, read-out: EC50 (protein remaining)",0.278 nM
same,"Bottom (best-fit value, % protein remaining)",SMARCA2; [2],20.4%
same,HillSlope,SMARCA2; [2],-1.475
same,LogEC50,"SMARCA2; SK-N-AS_SM2, log10 of concentration in mol/l",-7.468
same,DC50,"SMARCA2; SK-N-AS_SM2, protein degradation, four-parameter fit, read-out: EC50 (the source's name)",34 nM
same,PPB fu 10% Human,Plasma protein binding; 10% human,< 0.054%
same,PPB fu 10% Rat,Plasma protein binding; 10% rat,< 0.053% and < 0.048%
same,"fraction unbound at 5 h, 3 µmol/L","Plasma protein binding; bovine, 10% calf plasma dilution in PBS, 10% calf, fraction unbound, read-out: PPB fu 10% Calf",0.0035
same,"fraction unbound at 5 h, 3 µmol/L","Plasma protein binding; bovine, 10% plasma (plasma dilution in PBS), 10% calf, read-out: PPB fu 10% Calf",0.00349
same,"fraction unbound at 5 h, 3 µmol/L","Plasma protein binding; human, 10% plasma (plasma dilution in PBS), 10% human, read-out: PPB fu 10% Human",< 0.00045
same,"fraction unbound at 5 h, 3 µmol/L","Plasma protein binding; human, plasma, human, fraction unbound, read-out: PPB fu Human",< 0.0005
same,"fraction unbound at 5 h, 3 µmol/L","Plasma protein binding; mouse, 10% plasma (plasma dilution in PBS), 10% mouse, read-out: PPB fu 10% Mouse",< 0.00051
same,"fraction unbound at 5 h, 3 µmol/L","Plasma protein binding; mouse, plasma, mouse, fraction unbound, read-out: PPB fu Mouse",< 0.0005
same,"fraction unbound at 5 h, 3 µmol/L","Plasma protein binding; rat, 10% plasma (plasma dilution in PBS), 10% rat, read-out: PPB fu 10% Rat",< 0.00054
same,"fraction unbound at 5 h, 3 µmol/L","Plasma protein binding; rat, plasma, rat, fraction unbound, read-out: PPB fu Rat",< 0.0005
same,Papp A→B at 1 µM,"P-gp; Modified Caco-2 + PGPi (Zosuquidar), read-out: Modified Caco-2 + PGPi (Zosuquidar) Pab",8 ± 4 ×10⁻⁶ cm/s
same,"Papp B→A at 2 h, 1 µM","P-gp; Modified Caco-2, b to a, + PGPi (Zosuquidar), read-out: Modified Caco-2 Pba + PGPi (Zosuquidar)",11 ×10⁻⁶ cm/s
same,Papp A→B at 1 µM,"[1]; Caco-2, pH 7.4, Caco-2, read-out: Caco-2 Pab",2 ± 0.2 ×10⁻⁶ cm/s
same,Papp A→B at 1 µM,"[1]; Caco-2, pH 7.4, Modified Caco-2, read-out: Modified Caco-2 Pab",9 ± 9 ×10⁻⁶ cm/s
